Laboratory results published in PubChem BioAssay AID330 (DTP/NCI, 2004).
Several values for one entry are separate records, joined by “and”; a condition that tells them apart may be missing. Identical values can stand only once. Toxic doses and inconclusive results are not listed.

Tested on: P388 leukemia ip, CD2F1 mice, survival T/C
Assay: NCI In Vivo Anticancer Drug Screen. Data for tumor model P388 Leukemia (intraperitoneal) in CD2F1 (CDF1) mice
Conditions: endpoint: median survival time, higher = longer survival
How it was run: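 Mice carrying the transplanted tumor received test compound or vehicle. Survival was recorded in each group, and the value is the treated-group measurement divided by that of the vehicle-treated control group.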

[1] = dose: 100.0 mg/kg/injection, schedule: Q04DX002 (ip), vehicle: Klucel (hydroxypropylcellulose) (HPC)
[2] = dose: 200.0 mg/kg/injection, schedule: Q04DX002 (ip), vehicle: Klucel (hydroxypropylcellulose) (HPC)
[3] = dose: 400.0 mg/kg/injection, schedule: Q04DX002 (ip), vehicle: Klucel (hydroxypropylcellulose) (HPC)

CN=C(C)c1c(O)n(-c2ccccc2)[nH]c1=O
T/C [1]: 96 % of control
T/C [2]: 102 % of control
T/C [3]: 90 % of control

COc1cc2cccc(OC)c(=O)c2c(O)c1OC
T/C (dose: 50.0 mg/kg/injection, schedule: Q01DX005 (ip), vehicle: Klucel (hydroxypropylcellulose) (HPC)): 86 % of control
T/C (dose: 50.0 mg/kg/injection, schedule: Q01DX005 (ip), vehicle: saline with Tween-80): 99 % of control
T/C (dose: 100.0 mg/kg/injection, schedule: Q01DX005 (ip), vehicle: Klucel (hydroxypropylcellulose) (HPC)): 88 % of control
T/C (dose: 100.0 mg/kg/injection, schedule: Q01DX005 (ip), vehicle: saline with Tween-80): 95 % of control
T/C (dose: 200.0 mg/kg/injection, schedule: Q01DX005 (ip), vehicle: Klucel (hydroxypropylcellulose) (HPC)): 88 % of control
T/C (dose: 200.0 mg/kg/injection, schedule: Q01DX005 (ip), vehicle: saline with Tween-80): 91 % of control

COc1ccc(NS(=O)(=O)c2ccc(N=Cc3c4ccccc4nc4ccccc34)cc2)nn1
T/C (dose: 12.5 mg/kg/injection, schedule: Q04DX002 (ip), vehicle: Klucel (hydroxypropylcellulose) (HPC)): 96 % of control
T/C (dose: 25.0 mg/kg/injection, schedule: Q04DX002 (ip), vehicle: Klucel (hydroxypropylcellulose) (HPC)): 96 % of control
T/C (dose: 50.0 mg/kg/injection, schedule: Q04DX002 (ip), vehicle: Klucel (hydroxypropylcellulose) (HPC)): 89 % of control
T/C [1]: 96 % of control
T/C [2]: 89 % of control
T/C [3]: 89 % of control

ClC(=Nc1ccccc1)c1ccccn1
T/C (dose: 12.5 mg/kg/injection, schedule: Q01DX009 (ip), vehicle: Klucel (hydroxypropylcellulose) (HPC)): 101 % of control
T/C (dose: 25.0 mg/kg/injection, schedule: Q01DX009 (ip), vehicle: Klucel (hydroxypropylcellulose) (HPC)): 101 % of control
T/C (dose: 50.0 mg/kg/injection, schedule: Q01DX009 (ip), vehicle: Klucel (hydroxypropylcellulose) (HPC)): 96 % of control

c1ccc(C(c2ccccc2)c2cc(-c3cc(C(c4ccccc4)c4ccccc4)[nH]n3)n[nH]2)cc1
T/C (dose: 60.0 mg/kg/injection, schedule: Q01DX005 (ip), vehicle: distilled water + Tween-80): 97 % of control
T/C (dose: 120.0 mg/kg/injection, schedule: Q01DX005 (ip), vehicle: distilled water + Tween-80): 102 % of control
T/C (dose: 240.0 mg/kg/injection, schedule: Q01DX005 (ip), vehicle: distilled water + Tween-80): 102 % of control

CCCC[As](CCCC)SC1CC(OC(=O)c2ccccc2)C(OC(=O)c2ccccc2)C(COC(=O)c2ccccc2)O1 (centres undefined)
T/C (dose: 6.25 mg/kg/injection, schedule: Q01DX009 (ip), vehicle: saline + alcohol): 108 % of control
T/C (dose: 12.5 mg/kg/injection, schedule: Q01DX009 (ip), vehicle: saline + alcohol): 95 % of control
T/C (dose: 25.0 mg/kg/injection, schedule: Q01DX009 (ip), vehicle: saline + alcohol): 105 % of control
T/C (dose: 50.0 mg/kg/injection, schedule: Q01DX009 (ip), vehicle: saline + alcohol): 100 % of control

CC(=O)OCCN1CCN(CC/C=C2\c3ccccc3Sc3ccc(Cl)cc32)CC1
T/C (dose: 6.25 mg/kg/injection, schedule: Q01DX009 (ip), vehicle: saline with Tween-80): 109 % of control
T/C (dose: 12.5 mg/kg/injection, schedule: Q01DX009 (ip), vehicle: saline with Tween-80): 113 % of control
T/C (dose: 25.0 mg/kg/injection, schedule: Q01DX009 (ip), vehicle: saline with Tween-80): 113 % of control

COc1ccc(C2C3=C(CC(C)(C)CC3=O)Oc3cc4c(cc32)OCO4)cc1 (centres undefined)
T/C (dose: 60.0 mg/kg/injection, schedule: Q01DX005 (ip), vehicle: saline with Tween-80): 93 % of control
T/C (dose: 120.0 mg/kg/injection, schedule: Q01DX005 (ip), vehicle: saline with Tween-80): 96 % of control

S=c1[nH]c(Cl)c(Cl)cc1Cl
T/C (dose: 50.0 mg/kg/injection, schedule: Q01DX009 (ip), vehicle: saline with Tween-80): 98 % of control
T/C (dose: 100.0 mg/kg/injection, schedule: Q01DX009 (ip), vehicle: saline with Tween-80): 105 % of control
T/C (dose: 200.0 mg/kg/injection, schedule: Q01DX009 (ip), vehicle: saline with Tween-80): 99 % of control

CC(C)[C@]12O[C@H]1[C@@H]1O[C@]13[C@]1(O[C@H]1C[C@H]1C4=C(C(=O)OC4)[C@@H](O)C[C@@]13C)[C@@H]2O
T/C (dose: 0.03 mg/kg/injection, schedule: Q01DX009 (ip), vehicle: saline + alcohol): 100 % of control and 101 % of control and 119 % of control
T/C (dose: 0.05 mg/kg/injection, schedule: Q01DX009 (ip), vehicle: saline + alcohol): 117 % of control
T/C (dose: 0.06 mg/kg/injection, schedule: Q01DX005 (ip), vehicle: saline + alcohol): 110 % of control
T/C (dose: 0.06 mg/kg/injection, schedule: Q01DX005 (iv), vehicle: saline + alcohol): 107 % of control
T/C (dose: 0.06 mg/kg/injection, schedule: Q01DX009 (ip), vehicle: saline + alcohol): 117 % of control
T/C (dose: 0.1 mg/kg/injection, schedule: Q01DX009 (ip), vehicle: saline + alcohol): 124 % of control
T/C (dose: 0.13 mg/kg/injection, schedule: Q01DX005 (ip), vehicle: saline + alcohol): 122 % of control
T/C (dose: 0.13 mg/kg/injection, schedule: Q01DX005 (iv), vehicle: saline + alcohol): 108 % of control
T/C (dose: 0.25 mg/kg/injection, schedule: Q01DX005 (iv), vehicle: saline + alcohol): 108 % of control
T/C (dose: 0.25 mg/kg/injection, schedule: Q01DX009 (ip), vehicle: saline + alcohol): 157 % of control and 158 % of control
T/C (dose: 0.5 mg/kg/injection, schedule: Q01DX005 (iv), vehicle: saline + alcohol): 116 % of control
